Values joined by “and” are separate entries in the source; they are usually repeats but may differ in a detail not shown here. Equal values may be shown once. Read-outs that look alike come from different tables or passages of the source. One block for each compound: values may come before it.
Key:
StHK2a = StHK2a (Solanum tuberosum, UniProt A0A2P1D005); assay: Plant membrane (tobacco microsome) hormone binding assay with [3H]trans-zeatin, StHK2a
Text: (§1) The transient transformation of tobacco (Nicotiana benthamiana Domin) leaves was accomplished according to [Sparkes et al. (2006)]. Eight-week-old tobacco plants were infiltrated with a mixture of Agrobacterium tumefaciens carrying CK receptor genes fused to green fluorescent protein (GFP) and the A. tumefaciens helper strain p19 ([Voinnet et al., 2003]), and the expression of receptor genes was checked after 5–6 d with a fluorescence microscope, Axio Imager Z2 (Carl Zeiss Microscopy GmbH), before leaves were processed further for microsome isolation.
(§2) All manipulations were done at 4 °C. Tobacco leaves 6 d after infiltration were homogenized in buffer (3 ml per 1 g of fresh weight) containing 100 mM Tris–HCl (pH 8.0), 2 mM Na2-EDTA, 50 mM KCl, 1 mM DTT, and 1 mM phenylmethylsulfonyl fluoride. The homogenate was filtered through Miracloth (Calbiochem, San Diego, CA, USA), and the filtrate was centrifuged for 5 min at 5000 g. Then supernatant was centrifuged for 40 min at 15000 g. The microsome pellet was resuspended in 50 mM KCl–10% glycerol and the microsome suspension was stored at −70 °C.
(§3) Ligand binding studies were performed in PBS as described previously ([Romanov et al., 2005]; [Lomin et al., 2015]). Studies of pH influence on hormone binding were performed in 50 mM MES–KOH (pH 5–7) or Tris–HCl (pH 7–9) buffers with 50 mM KCl. Kd for [^3H]trans-zeatin (tZ) binding to different receptors was determined in saturation assays followed by data analysis in Scatchard plots.
(§4) To analyse ligand-binding properties of the receptors, a recently developed plant membrane assay system ([Lomin et al., 2015]) was used. Predicted potato CK receptor genes were cloned into pB7FWG2 vectors for transient expression in tobacco leaves. […] Instead of full-length receptor, we clond a genomic sequence of the StHK3a sensory module flanked by transmembrane domains. From the transiently transformed tobacco leaves, a microsomal fraction enriched with individual potato receptors was obtained. The binding assays were conducted using this fraction and tritium-labeled CK. In aggregate, we tested four putative receptors belonging to all three clades: StHK2a, StHK3a (sensory module, further designated as StHK3aSM), StHK4a, and StHK4b.
(§5) First, we determined the pH-dependence of hormone binding to these receptors within the pH range of 5–9 (Fig. 5).
(§6) The interaction of a hormone with a receptor is characterized by the equilibrium dissociation constant (Kd) of the ligand–receptor complex. Kd values were determined by the dose-dependent binding of labeled trans-zeatin to StHKs, and the results were processed by the Scatchard method (Supplementary Fig. S7; [Lomin and Romanov, 2008]).
(§7) Different CKs are usually present in the plant: trans- and cis-zeatins (tZ and cZ), isopentenyladenine (iP), and dihydrozeatin (DZ). In addition to natural CKs, there are many synthetic ones. […] We studied the ligand specificity of putative receptors in competitive experiments where binding of labeled CK was carried out in the presence of various concentrations of certain unlabeled ligands. Based on the obtained competition curves (Supplementary Fig. S8), the apparent Kd values were determined for each ligand as described ([Lomin and Romanov, 2008]). We analysed the interaction of StHKs with six CKs, including five natural ones as well as the synthetic urea-type CK thidiazuron (Table 3).

StHK4b = StHK4b (Solanum tuberosum, UniProt A0A2U9K786); assay: Plant membrane (tobacco microsome) hormone binding assay with [3H]trans-zeatin, StHK4b
StHK4b, sequence (A0A2U9K786 entry or part of it): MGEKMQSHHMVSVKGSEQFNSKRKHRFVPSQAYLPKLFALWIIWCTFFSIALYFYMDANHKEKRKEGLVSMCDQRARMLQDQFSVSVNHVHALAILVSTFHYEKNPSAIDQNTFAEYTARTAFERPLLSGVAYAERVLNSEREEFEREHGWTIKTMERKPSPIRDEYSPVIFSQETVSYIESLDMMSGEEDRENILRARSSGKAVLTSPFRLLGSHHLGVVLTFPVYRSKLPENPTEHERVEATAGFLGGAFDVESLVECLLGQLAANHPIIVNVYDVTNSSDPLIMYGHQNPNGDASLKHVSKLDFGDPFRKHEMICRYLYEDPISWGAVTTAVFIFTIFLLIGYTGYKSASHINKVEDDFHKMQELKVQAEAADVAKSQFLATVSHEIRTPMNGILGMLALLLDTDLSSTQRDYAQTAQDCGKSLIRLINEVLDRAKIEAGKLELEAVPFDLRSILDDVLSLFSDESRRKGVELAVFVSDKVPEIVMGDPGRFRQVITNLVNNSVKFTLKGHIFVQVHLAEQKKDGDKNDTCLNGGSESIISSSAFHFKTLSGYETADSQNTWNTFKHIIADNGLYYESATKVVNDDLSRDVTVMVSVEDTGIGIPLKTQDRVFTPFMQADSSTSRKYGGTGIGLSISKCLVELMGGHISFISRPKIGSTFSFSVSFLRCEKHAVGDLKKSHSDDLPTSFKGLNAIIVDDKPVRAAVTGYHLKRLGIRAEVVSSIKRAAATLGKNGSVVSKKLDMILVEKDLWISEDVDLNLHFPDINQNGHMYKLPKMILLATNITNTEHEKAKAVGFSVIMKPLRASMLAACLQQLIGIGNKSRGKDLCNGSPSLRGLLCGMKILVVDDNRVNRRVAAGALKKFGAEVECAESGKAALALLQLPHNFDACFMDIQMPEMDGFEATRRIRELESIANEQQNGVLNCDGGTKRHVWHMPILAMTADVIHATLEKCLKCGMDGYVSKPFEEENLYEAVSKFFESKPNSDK
Text: as §1, §2, §3, §4, §5, §6, §7

StHK4a = StHK4a (Solanum tuberosum, UniProt A0A2U9K790); assay: Plant membrane (tobacco microsome) hormone binding assay with [3H]trans-zeatin, StHK4a
StHK4a, sequence (A0A2U9K790 entry or part of it): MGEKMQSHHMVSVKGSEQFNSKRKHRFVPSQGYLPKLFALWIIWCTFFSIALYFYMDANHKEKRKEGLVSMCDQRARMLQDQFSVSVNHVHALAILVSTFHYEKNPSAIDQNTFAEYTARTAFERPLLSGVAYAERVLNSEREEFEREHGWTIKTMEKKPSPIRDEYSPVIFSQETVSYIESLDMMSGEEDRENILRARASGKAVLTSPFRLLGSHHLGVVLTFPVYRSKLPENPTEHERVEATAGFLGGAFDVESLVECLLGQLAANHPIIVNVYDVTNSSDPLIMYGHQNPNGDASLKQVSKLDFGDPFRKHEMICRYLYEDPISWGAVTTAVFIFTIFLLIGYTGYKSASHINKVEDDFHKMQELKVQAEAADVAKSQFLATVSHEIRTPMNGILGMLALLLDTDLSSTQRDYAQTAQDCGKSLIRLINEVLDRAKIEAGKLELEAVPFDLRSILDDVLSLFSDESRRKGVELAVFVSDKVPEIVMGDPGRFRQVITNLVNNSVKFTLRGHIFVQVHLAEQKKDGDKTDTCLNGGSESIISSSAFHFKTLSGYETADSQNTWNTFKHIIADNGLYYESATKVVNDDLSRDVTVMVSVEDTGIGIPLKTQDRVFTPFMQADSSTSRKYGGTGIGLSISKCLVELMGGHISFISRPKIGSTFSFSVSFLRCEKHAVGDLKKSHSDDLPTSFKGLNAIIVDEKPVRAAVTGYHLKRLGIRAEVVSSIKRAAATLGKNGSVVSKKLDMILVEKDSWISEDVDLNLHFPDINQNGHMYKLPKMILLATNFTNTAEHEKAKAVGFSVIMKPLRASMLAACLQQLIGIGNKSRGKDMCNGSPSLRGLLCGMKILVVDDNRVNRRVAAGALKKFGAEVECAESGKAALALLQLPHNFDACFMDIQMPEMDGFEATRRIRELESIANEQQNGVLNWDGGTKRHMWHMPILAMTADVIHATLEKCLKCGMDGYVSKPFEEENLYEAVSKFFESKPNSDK
Text: as §1, §2, §3, §4, §5, §6, §7

StHK3aSM = StHK3aSM (Solanum tuberosum, UniProt A0A2U9K793); assay: Plant membrane (tobacco microsome) hormone binding assay with [3H]trans-zeatin, StHK3a sensory module
StHK3aSM, sequence (A0A2U9K793 entry or part of it): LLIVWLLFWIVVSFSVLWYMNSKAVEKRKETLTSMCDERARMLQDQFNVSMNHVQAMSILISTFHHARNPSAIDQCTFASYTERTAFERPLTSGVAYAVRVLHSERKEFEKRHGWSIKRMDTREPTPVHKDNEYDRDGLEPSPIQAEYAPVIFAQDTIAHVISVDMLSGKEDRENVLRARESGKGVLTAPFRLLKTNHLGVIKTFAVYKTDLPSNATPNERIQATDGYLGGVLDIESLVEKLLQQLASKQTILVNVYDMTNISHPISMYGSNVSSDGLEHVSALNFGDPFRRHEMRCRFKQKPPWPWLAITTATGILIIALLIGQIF
Text: as §1, §2, §3, §4, §5, §6, §7

StHK4 expression = assay: qRT-PCR of CK receptor gene expression after BA treatment of potato plants; format: in vivo, Solanum tuberosum; details: leaves; 1.5% sucrose; 1 μM BA, 1 h; on average
Procedure: (§8) Potato cv. Désirée plants were cultivated under standard in vitro conditions at a long (16 h) day for 5–6 weeks on liquid MS medium containing 1.5% or 5% sucrose. For hormone treatment, the medium was replaced with the same one supplemented with N^6-benzyladenine (BA, 1 μM). Tubes were inverted several times to assure uniform plant wetting and then incubated for 1 h under standard conditions. Finally, plant organs (leaves, stems, roots, tubers) were isolated and immediately frozen in liquid nitrogen. Control plants were treated in the same way but without hormone. Total RNA was isolated by the Trizol method ([Brenner et al., 2005]), and served as the template for cDNA synthesis by reverse transcription (Invitrogen). All RNA samples were treated with RNase-free DNase I. The resulting cDNA was checked for genomic DNA contamination by PCR with primers differentiating cDNA and genomic DNA. The band derived from genomic DNA was absent in the separating gel. Expression of genes encoding predicted proteins of the CK signaling system was determined by qRT-PCR. Potato housekeeping genes StEF1α (elongation factor 1-α, AB061263) and StCYC (cyclophilin, AF126551) were used as reference genes ([Nicot et al., 2005]). […]
At 1.5% sucrose, the up-regulation (on average, 2.5-fold) of StHK4 expression was regularly recorded, but only in leaves (Fig. 8). […]

StRR-A genes = assay: qRT-PCR of type A response regulator gene expression after BA treatment of potato plants; format: in vivo, Solanum tuberosum; details: 1 μM BA, 1 h; 1.5% sucrose
Procedure: as §8
To validate the results of CK treatment experiments, the effect of CK administration on the transcript level of the genes of type A response regulator (RR-A) genes was analysed. […]

[1] = molecular target: StHKs (StHK2a, StHK3aSM, StHK4a, StHK4b); assay: Competitive binding, summary over the analysed StHKs; design: species or system Solanum tuberosum; details: span over StHK2a, read-out: apparent Kd, all analysed StHKs
Procedure: as §3
as §4, with “In aggregate, we tested four putative receptors belonging to all three clades: StHK2a, StHK3a (sensory module, further designated as StHK3aSM), StHK4a, and StHK4b.” left out
Different CKs are usually present in the plant: trans- and cis-zeatins (tZ and cZ), isopentenyladenine (iP), and dihydrozeatin (DZ). […] Based on the obtained competition curves (Supplementary Fig. S8), the apparent Kd values were determined for each ligand as described ([Lomin and Romanov, 2008]). We analysed the interaction of StHKs with six CKs, including five natural ones as well as the synthetic urea-type CK thidiazuron (Table 3).

[2] = competition with labeled trans-zeatin (tZ value from saturation/Scatchard); mean ± SE; read-out: Apparent Kd StHK2a
[3] = competition with labeled trans-zeatin (tZ value from saturation/Scatchard), mean ± SE, read-out: Apparent Kd StHK4b
[4] = competition with labeled trans-zeatin (tZ value from saturation/Scatchard), mean ± SE, read-out: Apparent Kd StHK4a
[5] = sensory module, competition with labeled trans-zeatin (tZ value from saturation/Scatchard), mean ± SE, read-out: Apparent Kd StHK3a SM

StHK2a, sequence (A0A2P1D005 entry or part of it): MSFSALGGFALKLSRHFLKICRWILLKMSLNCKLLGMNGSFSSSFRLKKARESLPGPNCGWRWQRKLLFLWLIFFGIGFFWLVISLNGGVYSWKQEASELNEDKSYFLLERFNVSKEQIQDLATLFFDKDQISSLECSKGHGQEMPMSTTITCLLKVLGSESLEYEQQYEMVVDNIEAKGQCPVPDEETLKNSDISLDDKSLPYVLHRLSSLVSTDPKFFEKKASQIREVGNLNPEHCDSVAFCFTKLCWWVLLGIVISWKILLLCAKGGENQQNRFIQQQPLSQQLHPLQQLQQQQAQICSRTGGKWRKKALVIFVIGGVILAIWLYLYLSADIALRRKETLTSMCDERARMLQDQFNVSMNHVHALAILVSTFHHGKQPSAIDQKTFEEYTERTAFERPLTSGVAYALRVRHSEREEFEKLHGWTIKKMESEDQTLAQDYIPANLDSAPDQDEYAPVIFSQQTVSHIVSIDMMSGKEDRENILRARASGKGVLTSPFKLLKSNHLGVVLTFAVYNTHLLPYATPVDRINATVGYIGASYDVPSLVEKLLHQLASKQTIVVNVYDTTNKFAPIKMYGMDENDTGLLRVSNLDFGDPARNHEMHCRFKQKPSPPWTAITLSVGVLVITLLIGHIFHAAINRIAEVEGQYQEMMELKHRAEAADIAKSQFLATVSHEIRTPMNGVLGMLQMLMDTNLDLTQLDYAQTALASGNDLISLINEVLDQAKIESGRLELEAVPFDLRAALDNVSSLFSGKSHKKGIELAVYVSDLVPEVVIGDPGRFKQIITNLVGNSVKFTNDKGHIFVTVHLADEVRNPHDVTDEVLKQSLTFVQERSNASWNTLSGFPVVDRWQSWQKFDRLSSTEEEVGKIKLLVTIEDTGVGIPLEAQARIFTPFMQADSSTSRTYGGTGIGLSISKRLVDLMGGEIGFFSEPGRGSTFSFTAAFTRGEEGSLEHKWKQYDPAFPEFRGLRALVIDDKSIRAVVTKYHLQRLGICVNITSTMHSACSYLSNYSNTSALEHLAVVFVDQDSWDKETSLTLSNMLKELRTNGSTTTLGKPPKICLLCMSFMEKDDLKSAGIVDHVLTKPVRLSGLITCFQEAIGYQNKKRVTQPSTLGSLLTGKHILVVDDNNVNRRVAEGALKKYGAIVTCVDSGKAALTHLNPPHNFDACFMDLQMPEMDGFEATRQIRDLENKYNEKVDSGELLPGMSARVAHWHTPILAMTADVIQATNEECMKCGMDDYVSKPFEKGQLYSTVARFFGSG

SMILES: c1ccc(CNc2ncnc3nc[nH]c23)cc1 [N ^6-Benzyladenine]
- Kd (StHK2a; read-out: Apparent Kd StHK2a; competition with labeled trans-zeatin (tZ value from saturation/Scatchard); mean ± SE): 45 ± 3.5 nM
- Kd (StHK4b): 63 ± 12 nM
- Kd (StHK4a): 55 ± 7 nM
- Kd (StHK3aSM; Apparent Kd StHK3a SM, sensory module, competition with labeled trans-zeatin (tZ value from saturation/Scatchard), mean ± SE): 49 ± 7 nM
- up-regulation of StHK4 expression (BA/control) (StHK4 expression): 2.5 fold
- expression of StRR-A genes (StRR-A genes): rapid and reliable increase

SMILES: O=C(Nc1ccccc1)Nc1cnns1 [Thidiazuron]
- Kd (StHK2a; [2]): 1.4 ± 0.04 nM
- Kd (StHK4b; [3]): 17.2 ± 2.5 nM
- Kd (StHK4a; [4]): 12.6 ± 1.9 nM
- Kd (StHK3aSM; [5]): 2.3 ± 0.5 nM

SMILES: C/C(=C/CNc1ncnc2nc[nH]c12)CO [cis-Zeatin]
- Kd [1]: > 100 nM
- Kd (StHK2a; read-out: Apparent Kd StHK2a): 102 ± 7 nM
- Kd (StHK4b; read-out: Apparent Kd StHK4b): 129 ± 19 nM
- Kd (StHK4a; read-out: Apparent Kd StHK4a): 106 ± 22 nM
- Kd (StHK3aSM; read-out: Apparent Kd StHK3a SM): 110 ± 39 nM

Second part, the compound after the results:

- Kd (StHK2a; [2]): 169 ± 18 nM
- Kd (StHK4b; [3]): 227 ± 33 nM
- Kd (StHK4a; [4]): 178 ± 37 nM
- Kd (StHK3aSM; [5]): ~21 nM and 21 nM
SMILES: CC(CO)CCNc1ncnc2nc[nH]c12 (stereo not drawn) [Dihydrozeatin]

- Kd (StHK2a; [2]): 2.4 ± 0.2 nM
- Kd (StHK4b; [3]): 2.5 ± 0.3 nM
- Kd (StHK4a; [4]): 2.1 ± 0.2 nM
- Kd (StHK3aSM; [5]): 5.2 ± 0.8 nM
SMILES: CC(C)=CCNc1ncnc2nc[nH]c12 [N ^6-Isopentenyladenine]

- pH of maximal trans-zeatin binding, StHK2a (StHK2a): 7.5
- reduction of binding at pH 5 (factor), StHK2a (StHK2a): 2
- Kd (StHK2a; [2]): 2.6 ± 0.3 nM
- Kd (StHK4b; [3]): 3 ± 0.3 nM
- decrease of ligand binding at pH 5, StHK4b (StHK4b; pH 5): about 3 fold
- Kd (StHK4a; [4]): 2.5 ± 0.7 nM
- decrease of ligand binding at pH 5, StHK4a (StHK4a; pH 5): about 3 fold
- pH of maximal trans-zeatin binding, StHK3aSM (StHK3aSM): 7
- reduction of binding at pH 5 (factor), StHK3aSM (StHK3aSM): 5
- Kd (StHK3aSM; [5]): 4.7 ± 0.6 nM
SMILES: C/C(=C\CNc1ncnc2[nH]cnc12)CO [trans-Zeatin]

Source: paper PMC6054150, “Cytokinin perception in potato: new features of canonical players” (Journal of Experimental Botany, 2018)
